Holding throughout (assay): growth of human tumour cells (NCI), 48 h
The test system of assay [1] is SF-539 CNS.
Assay [2] relates to MDA-MB-435.
The test system of assay [3] is HCC-2998 colon.
Assay [4] deals with DU-145 prostate.
The subject of assay [5] is HCT-15 colon.
The subject of assay [6] is UO-31 renal.
Assay [7] deals with A549 NSCLC.
Assay [8] concerns LOX IMVI melanoma.

Molecules are shown by their SMILES.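 Grown in 96-well plates, cells were treated for 48 hours with each compound at five concentrations. Insufficient inhibition: endpoint recorded as highest concentration tested. GI50 marks 50% less growth. Definition used: TGI = concentration required for complete inhibition of growth.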

For `Nc1nc(-c2ccccc2)cc(-c2ccc(Cl)cc2)c1-c1nc2ccccc2o1`, the GI50 was 17.5 µM in assay [1]; 17.6 µM in assay [2]; 10.3 µM in assay [3]; 12.8 µM in assay [4]; 10400 nM in assay [5]; 8360 nM in assay [6]. Besides, the values for the GI50 in assay [7] and in assay [8] were 14.9 µM and 6040 nM, respectively. Besides, the TGI in assay [1] worked out at 32.3 µM; in assay [2] it was 35.3 µM; in assay [3], 25.8 µM; in assay [4], 26 µM; in assay [5], 23.2 µM; in assay [6], 21.3 µM. Moreover, the results for the TGI in assay [7] and in assay [8] were 31.4 µM and 18.4 µM, respectively.

Take `CSC1(CC(=O)N2CCCCC2)C(=O)Nc2ccccc21` (centres undefined): the TGI in assay [1], in assay [2], in assay [3], in assay [4], in assay [5] and in assay [6] was greater than 100 µM throughout. Besides, the TGI in assay [7] and in assay [8] was greater than 100 µM each time.

With `O=c1ccnc(SCc2ccc(Cl)cc2)[nH]1`, the TGI in assay [1] is greater than 100 µM; in assay [2], greater than 100 µM; in assay [3], 66.2 µM; in assay [4], greater than 100 µM; in assay [5] it was greater than 100 µM; in assay [6], greater than 100 µM. In addition, the TGI in assay [7] and in assay [8] was greater than 100 µM each time.

Turning to `Oc1c(I)cc(I)cc1CN(Cc1ccccn1)Cc1ccccn1`, the GI50 was 0.855 µM in assay [1]; 2.19 µM in assay [2]; 4.18 µM in assay [3]; 1.57 µM in assay [4]; 453 nM in assay [5]; 554 nM in assay [6]. Also, the results for the GI50 in assay [7] and in assay [8] were 0.906 µM and 629 nM, respectively. Besides, the TGI in assay [1] is 10 µM; in assay [2], 18.7 µM; in assay [3], 34.7 µM; in assay [4], 20.4 µM; in assay [5], greater than 40.6 µM; in assay [6], 3.07 µM. The TGI in assay [7] was 13.4 µM; in assay [8] it was greater than 33.8 µM.

Consider `COc1cnc2c(c1)C(=O)c1c-2n(CCCNC(C)C)c(=O)c2cc([N+](=O)[O-])ccc12`, for which the GI50 in assay [1] was 0.0519 µM; in assay [2] it was 0.109 µM; in assay [3], 0.109 µM; in assay [4], 0.0502 µM; in assay [5], 124 nM; in assay [6], 24.3 nM. In addition, in assay [8], the GI50 is 18.9 nM. The TGI in assay [1] stood at 0.204 µM; in assay [2], 0.261 µM; in assay [3] it was 0.269 µM; in assay [4], 0.403 µM; in assay [5], 0.402 µM; in assay [6], 0.135 µM. In addition, the TGI in assay [8] came to 0.104 µM.

As to `C=C1C(=O)O[C@H]2[C@H]1CC/C(COC(=O)NCc1cc(OC)cc(OC)c1)=C\CC[C@@]1(C)O[C@@H]21`, the GI50 in assay [1] was 1.54 µM; in assay [2], 1.99 µM; in assay [3], 1.94 µM; in assay [4], 0.724 µM; in assay [5] it was 770 nM; in assay [6] it was 1510 nM. The GI50 was 2.58 µM in assay [7] and 549 nM in assay [8]. Moreover, the TGI in assay [1] is 3.02 µM; in assay [2] it was 4.11 µM; in assay [3], 3.51 µM; in assay [4] it was 2.03 µM; in assay [5] it was 2.25 µM; in assay [6] it was 2.95 µM. For the same molecule, the TGI was found to be 7.47 µM in assay [7] and 1.89 µM in assay [8].

Turning to `C=C(C)[C@@H]1CC[C@]2(C(N)=O)CC[C@]3(C)[C@H](CC[C@@H]4[C@@]5(C)C/C(=C/c6cccnc6)[C@H](O)C(C)(C)[C@@H]5CC[C@]43C)[C@@H]12`, the GI50 in assay [1] is 4.89 µM; in assay [2], 3.77 µM; in assay [3], 4.66 µM; in assay [4], 7.08 µM; in assay [5], 2600 nM; in assay [6], 3020 nM. The GI50 in assay [7] was 3.37 µM; in assay [8], 4380 nM. For the same molecule, the TGI in assay [1], in assay [2], in assay [3], in assay [4], in assay [5] and in assay [6] was greater than 100 µM in each case. Moreover, the TGI in assay [7] is greater than 100 µM; in assay [8], 37.1 µM.

Regarding `Cc1nn(C)c2cc(N(C)c3ccnc(Nc4cccc(S(N)(=O)=O)c4)n3)ccc12`, the GI50 in assay [1] was 8.01 µM; in assay [2] it was 6.12 µM; in assay [3] it was 15.7 µM; in assay [4] it was 7.18 µM; in assay [5] it was 9020 nM; in assay [6], 3440 nM. Besides, the GI50 was 8.55 µM in assay [7] and 7140 nM in assay [8]. Also, the TGI in assay [1] was greater than 25 µM; in assay [2] it was greater than 25 µM; in assay [3], greater than 25 µM; in assay [4] it was greater than 25 µM; in assay [5], greater than 25 µM; in assay [6], greater than 18.1 µM. Besides, the TGI in assay [7] and in assay [8] was greater than 25 µM each time.

Turning to `N#CSc1ccc(S(N)(=O)=O)cc1`, the TGI in assay [1] was 68 µM; in assay [2] it was greater than 100 µM; in assay [3] it was greater than 100 µM; in assay [4], greater than 100 µM; in assay [5], greater than 100 µM; in assay [6], 35.2 µM. For the same molecule, the TGI in assay [7] and in assay [8] was greater than 100 µM each time.

For the molecule `COc1ccc2nc(-c3cc4c([nH]c5ccccc54)c(-c4ccc(F)c(F)c4)n3)[nH]c2c1`, the GI50 in assay [1] is 15.5 µM; in assay [2] it was 3.69 µM; in assay [3], 8.96 µM; in assay [4], 4.13 µM; in assay [5], 3410 nM; in assay [6], 1460 nM. Further, the GI50 is 4.05 µM in assay [7] and 2860 nM in assay [8]. In addition, the TGI in assay [1] was found to be 34.6 µM; in assay [2], 15.4 µM; in assay [3] it was 25.3 µM; in assay [4], 17.3 µM; in assay [5], 16.7 µM; in assay [6], 16.1 µM. Moreover, the TGI in assay [7] worked out at 17.6 µM; in assay [8], 10.8 µM.
